In ChEMBL document CHEMBL1201862, “PubChem BioAssay data set” (2004):
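Grown in 96-well plates, cells were treated for 48 hours with each compound at five concentrations. Insufficient inhibition: endpoint recorded as highest concentration tested. GI50 is the concentration that inhibits growth by half.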 Active and inactive are the calls of the source. Cut-off read from the data, not from the text of the source: active = GI50 up to about 1.1 µM and inactive = higher.

Experiments:
Test in all cases: growth of human tumour cells (NCI), 48 h
[1] = tested on: CCRF-CEM
[2] = tested on: COLO 205
[3] = tested on: EKVX
[4] = tested on: HCC 2998
[5] = tested on: HL-60
[6] = tested on: HOP-18
[7] = tested on: IGROV-1
[8] = tested on: LOX IMVI
[9] = tested on: NCI-H23
[10] = tested on: RPMI-8226
[11] = tested on: RXF 393
[12] = tested on: SF-268
[13] = tested on: SF-295
[14] = tested on: SK-MEL-5
[15] = tested on: SNB-75
[16] = tested on: TK-10
[17] = tested on: UACC-257
[18] = tested on: UACC-62
[19] = tested on: Hs-578T
[20] = tested on: PC-3

| Compound | GI50 [1] | GI50 [2] | GI50 [3] | GI50 [4] | GI50 [5] | GI50 [6] | GI50 [7] | GI50 [8] | GI50 [9] | GI50 [10] | GI50 [11] | GI50 [12] | GI50 [13] | GI50 [14] | GI50 [15] | GI50 [16] | GI50 [17] | GI50 [18] | GI50 [19] | GI50 [20] |
| --- | --- | --- | --- | --- | --- | --- | --- | --- | --- | --- | --- | --- | --- | --- | --- | --- | --- | --- | --- | --- |
| CN(C)CCNC(=O)C1COc2cc(-c3cc(=O)c4ccccc4o3)ccc2O1 (centres undefined) | 30.4 µM (inactive) | 16.6 µM (inactive) | 53.5 µM (inactive) | > 100 µM (inactive) | 23.9 µM (inactive) | 24.4 µM (inactive) | 22.2 µM (inactive) | 19.6 µM (inactive) | 41.1 µM (inactive) | 27.9 µM (inactive) | 21.4 µM (inactive) | 23.7 µM (inactive) | 28.4 µM (inactive) | 15.2 µM (inactive) | 17.8 µM (inactive) | 29.6 µM (inactive) | 18.5 µM (inactive) | 18.8 µM (inactive) |  |  |
| COc1ccc(/C(Cl)=C(\C=N/O)c2ccc(OC)c(OC)c2)cc1OC | > 100 µM (inactive) | > 100 µM (inactive) | > 100 µM (inactive) | > 100 µM (inactive) | > 100 µM (inactive) | > 100 µM (inactive) | > 100 µM (inactive) | > 100 µM (inactive) | > 100 µM (inactive) | > 100 µM (inactive) | > 100 µM (inactive) | > 100 µM (inactive) | 81.7 µM (inactive) | > 100 µM (inactive) | > 100 µM (inactive) | > 100 µM (inactive) | > 100 µM (inactive) | > 100 µM (inactive) |  |  |
| Nc1ccc(S(=O)(=O)Nc2ccc(Nc3c4ccccc4nc4ccccc34)cc2)cc1 | < 0.01 µM (active) | 0.483 µM (active) | 1.82 µM (inactive) | 0.164 µM (active) | < 0.0102 µM (active) | 0.43 µM (active) | 0.769 µM (active) | 0.015 µM (active) | 0.0185 µM (active) | 0.0164 µM (active) | 0.316 µM (active) | 0.0168 µM (active) | 0.0127 µM (active) | 0.0199 µM (active) | 0.0158 µM (active) | 0.566 µM (active) | 1.87 µM (inactive) | 0.0213 µM (active) | 1.86 µM (inactive) | 0.0555 µM (active) |
| Cn1c2ccccc2n2c3nc4ccccc4nc3c(C#N)c12 | 60 µM (inactive) | 70 µM (inactive) | > 100 µM (inactive) | 9.68 µM (inactive) | > 87.9 µM (inactive) | > 100 µM (inactive) | > 100 µM (inactive) | > 100 µM (inactive) | > 96.8 µM (inactive) | 71 µM (inactive) | > 42.3 µM (inactive) | 81.3 µM (inactive) | 88.3 µM (inactive) | 4.4 µM (inactive) | > 30.8 µM (inactive) | > 10 µM (inactive) | > 82.6 µM (inactive) | 65.5 µM (inactive) | 56 µM (inactive) | > 96.8 µM (inactive) |
| O=Cc1cn(S(=O)(=O)c2ccccc2)c2ccccc12 | 23.3 µM (inactive) |  | > 100 µM (inactive) | > 100 µM (inactive) | 16.7 µM (inactive) | 32.4 µM (inactive) | > 100 µM (inactive) | 20.6 µM (inactive) | 26.4 µM (inactive) | 20.8 µM (inactive) | 95.5 µM (inactive) | 25.5 µM (inactive) | 48.3 µM (inactive) |  | 26.2 µM (inactive) | > 100 µM (inactive) | 29.6 µM (inactive) | 26.9 µM (inactive) |  |  |
| COC1/C=C\C=C(/C)C(=O)NC2=CC(=O)C(N)=C(CC(C)CC(OC)C(O)C(C)C=C(C)C1OC(N)=O)C2=O (centres undefined) | 0.178 µM (active) | < 0.01 µM (active) | 3.97 µM (inactive) | 0.0268 µM (active) | 0.0585 µM (active) | < 0.01 µM (active) | 0.0318 µM (active) | 0.0193 µM (active) | < 0.0212 µM (active) | 0.195 µM (active) | 2.93 µM (inactive) | 0.419 µM (active) | 0.0295 µM (active) | 0.042 µM (active) | < 0.0137 µM (active) | 0.321 µM (active) | 0.03 µM (active) | 0.0247 µM (active) | < 0.01 µM (active) | 0.293 µM (active) |
| O=c1c2ccccc2c2c3c1cccc3c1cccc3c(=O)c4ccccc4c2c31 | > 100 µM (inactive) | > 100 µM (inactive) | > 100 µM (inactive) | > 100 µM (inactive) | > 10 µM (inactive) | > 100 µM (inactive) | > 100 µM (inactive) | > 100 µM (inactive) | > 100 µM (inactive) |  | > 100 µM (inactive) | > 100 µM (inactive) | > 100 µM (inactive) | > 100 µM (inactive) | > 100 µM (inactive) | > 100 µM (inactive) | > 100 µM (inactive) | > 100 µM (inactive) |  |  |
| O=C(/C=C/c1c(O)ccc2ccccc12)c1ccc([N+](=O)[O-])cc1 | 17.9 µM (inactive) | 33.1 µM (inactive) | 41.9 µM (inactive) | 97.9 µM (inactive) | 9.77 µM (inactive) | 15.2 µM (inactive) | > 60.8 µM (inactive) | 16.7 µM (inactive) | 23.1 µM (inactive) | 25.9 µM (inactive) | 23.1 µM (inactive) | 41.5 µM (inactive) | > 66.2 µM (inactive) | 19.4 µM (inactive) | > 83 µM (inactive) | > 53.5 µM (inactive) | 25.2 µM (inactive) | 17.4 µM (inactive) |  |  |
| Cc1ccccc1C(=O)N1CCN(C(=O)c2ccccc2C)CC1 | > 100 µM (inactive) |  | > 100 µM (inactive) | > 100 µM (inactive) | > 100 µM (inactive) | > 100 µM (inactive) | > 100 µM (inactive) | > 100 µM (inactive) | > 100 µM (inactive) | > 100 µM (inactive) | > 100 µM (inactive) | > 100 µM (inactive) | > 100 µM (inactive) | > 100 µM (inactive) | > 100 µM (inactive) | > 100 µM (inactive) | > 100 µM (inactive) | > 100 µM (inactive) |  |  |
